pEC50: −log10 of the molar value. “And” between values parts separate entries of the source, which are not always exact repeats. Equal values may be shown once. Read-outs that look alike come from different tables or passages of the source.
Columns and labels:
human NHE1 (hNHE1) = molecular target: T1, human NHE1 (hNHE1) (Homo sapiens, UniProt P19634); experiment: NHE1 plasma assay (pH recovery, BCECF/FLIPR) with rabbit plasma; format: cell-based
T1 construct: expressed in transfected cells
Source text: (§1) Plasma samples were obtained from male New Zealand rabbits (2.5-3.5 kg) maintained on standard rabbit chow with 0.3% cariporide (NHE inhibitor). A blood sample was taken after 1 week from the auricular artery for the determination of the plasma concentrations of cariporide. Determination of plasma concentration of cariporide was done as described below:
(§2) The NHE-Gene (SLC9A1, Franchi A. et al., Proc Natl Acad Sci USA., 1986 December; 83(24):9388-92.) was cloned into the pMamneo-vector and introduced into LAP1 (mouse LTK-cell line) cells. Stable cell lines were generated from transfected cells.
(§3) LAP1 (mouse LTK-cell line) cells stably expressing human NHE1 (hNHE1) were seeded with a density of 25.000 cells/well/100 μl medium (Iscove-medium, 10% FCS, 2 mM L-glutamine, 100 u/ml penicilline/streptomycine, 50 μg/ml gentamicine, 400 μg/ml G418) on black, clear bottom 96-well microplates (Costar®, Corning Inc., Corning, N.Y.). Cells were incubated overnight at 37° C., 5% CO2 and 90% humidity. The medium was discarded prior to measurement and 100 μl/well dye buffer (20 mM HEPES, pH 7.4 adjusted with KOH, 20 mM NH4Cl, 115 mM choline chloride, 1 mM MgCl2, 1 mM CaCl2, 5 mM KCl, 5 mM glucose, 5 μM BCECF) were added. After incubation for 20 min at 37° C. the cells were washed 3-times with Na^+-free washing buffer (5 mM HEPES, pH 7.4 adjusted with KOH, 133.8 mM choline chloride, 4.7 mM KCl, 1.25 mM CaCl2, 1.25 mM MgCl2, 0.97 mM K2HPO4, 0.23 mM KH2PO4, 5 mM glucose), leaving 90 μl of washing buffer per well. pH-recovery was measured with a FLIPR (Fluorometric Imaging Plate Reader, Molecular Devices, Sunnyvale, Calif.; laser power 0.3 W, aperture 4, measuring interval 2 s, time of measurement 120 s). During measurement 90 μl of plasma solution (90% animal plasma from animals feeded w/o antagonist, 10% Na^+-buffer: 10 mM HEPES, pH 7.4 adjusted with KOH, 133.8 mM NaCl, 4.7 mM KCl, 1.25 mM MgCl2, 1.25 mM CaCl2, 0.97 mM Na2HPO4, 0.23 mM NaH2PO4, 5 mM glucose) were added to the wells. Due to the Na^+ in the buffer NHE1 starts to transport H^+ out of the cells, leading to an increase in intracellular pH and fluorescence. High control: plasma solution without antagonist. Low control: plasma solution with 20 μM cariporide (10 μM final concentration). Cariporide was added to the plasma after preparation. […] For calibration different amounts of cariporide and the tested antagonists were added to plasma after preparation to determine the efficiency in animal plasma.
(§4) For calculation of NHE1 activity, the increase in fluorescence between the 12th and 32nd s was calculated. The high control was set as 100% activity whereas the low control determines 0% NHE1 activity. %-activity of the samples was calculated by a comparison to the controls.

[1] = as above; format: cell-based, human; conditions: male, New Zealand, rabbit, plasma, oral, 0.3 % in chow; rabbits on 0.3% cariporide chow, 1 week; inferred from complete NHE1 block
Source text: as §1, §2, §3, §4

hNHE1 [2] = molecular target: T2, hNHE1 (Homo sapiens, UniProt P19634); experiment: Calibration curve of NHE1 activity, compound dilution series in rat plasma; format: cell-based
T2 construct: expressed in transfected cells
T2 sequence (P19634 whole entry): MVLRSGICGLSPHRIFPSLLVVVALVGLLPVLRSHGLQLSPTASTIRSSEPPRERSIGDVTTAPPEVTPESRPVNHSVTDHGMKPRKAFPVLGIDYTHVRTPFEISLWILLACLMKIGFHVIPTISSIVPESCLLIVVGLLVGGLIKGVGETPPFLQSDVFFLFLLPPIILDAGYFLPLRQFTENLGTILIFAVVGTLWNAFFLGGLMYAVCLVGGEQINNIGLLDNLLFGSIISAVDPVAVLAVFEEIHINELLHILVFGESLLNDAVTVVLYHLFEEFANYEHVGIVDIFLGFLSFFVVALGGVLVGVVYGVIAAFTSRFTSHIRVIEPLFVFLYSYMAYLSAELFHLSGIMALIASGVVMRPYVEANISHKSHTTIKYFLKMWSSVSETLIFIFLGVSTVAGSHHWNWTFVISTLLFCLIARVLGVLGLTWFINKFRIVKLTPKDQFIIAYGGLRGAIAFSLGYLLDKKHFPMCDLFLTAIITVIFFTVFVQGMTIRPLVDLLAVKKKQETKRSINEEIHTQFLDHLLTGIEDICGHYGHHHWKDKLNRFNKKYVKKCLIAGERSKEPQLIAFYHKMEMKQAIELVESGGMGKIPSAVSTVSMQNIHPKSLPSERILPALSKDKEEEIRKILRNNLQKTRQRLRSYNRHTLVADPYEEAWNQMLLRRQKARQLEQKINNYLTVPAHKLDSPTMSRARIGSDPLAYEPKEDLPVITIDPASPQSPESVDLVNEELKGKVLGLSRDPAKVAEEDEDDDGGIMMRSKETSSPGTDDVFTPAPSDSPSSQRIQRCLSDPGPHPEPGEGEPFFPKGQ
Experimental: For the cell-based determination of NHE1 ligand efficiency, LAP1 (mouse LTK-cell line) cells stably expressing hNHE1 (see Example 1) were seeded at a density of 25.000 cells/well/100 μl medium (Iscove-medium, 10% FCS, 2 mM L-glutamine, 100 μ/ml penicilline/streptomycine, 50 μg/ml gentamicine, 400 μg/ml G418) on black, clear bottom 96-well microplates (Costar®, Corning Inc., Corning, N.Y.). Cells were incubated overnight at 37° C., 5% CO2 and 90% humidity. The medium was discarded prior to measurement and 100 μl/well dye buffer (20 mM HEPES, pH 7.4 adjusted with KOH, 20 mM NH4Cl, 115 mM choline chloride, 1 mM MgCl2, 1 mM CaCl2, 5 mM KCl, 5 mM glucose, 5 μM BCECF) were added. After incubation for 20 min at 37° C. the cells were washed 3-times with Na^+-free washing buffer (5 mM HEPES, pH 7.4 adjusted with KOH, 133.8 mM choline chloride, 4.7 mM KCl, 1.25 mM CaCl2, 1.25 mM MgCl2, 0.97 mM K2HPO4, 0.23 mM KH2PO4, 5 mM glucose), leaving 90 μl of washing buffer per well. The plasma probes were prepared as followed: 10% (v/v) Na^+-buffer (10 mM HEPES, pH 7.4 adjusted with KOH, 133.8 mM NaCl, 4.7 mM KCl, 1.25 mM MgCl2, 1.25 mM CaCl2, 0.97 mM Na2HPO4, 0.23 mM NaH2PO4, 5 mM glucose) were added to 90% (v/v) rat plasma. High controls (plasma solution without antagonist) and low controls (plasma solution with 20 μM cariporide, 10 μM final concentration) were prepared. A dilution series of cariporide and COMPOUND X in 10% (v/v) Na^+-buffer/90% (v/v) rat plasma was used for a calibration curve to calculate the compound concentration in the rat plasma probes FIGS. 1 and 2). The pH-recovery was measured with a FLIPR (Fluorometric Imaging Plate Reader, Molecular Devices, Sunnyvale, Calif.; laser power 0.3 W, aperture 4, measuring interval 2 s, time of measurement 120 s). During measurement 90 μl of plasma solution were added to the wells. For calculation of NHE1 activity, the increase in fluorescence between the 12th and 32nd s was calculated. The high control was set as 100% activity and the low control as 0% NHE1 activity. Activity (%) of the samples was calculated by a comparison of the controls. Compound plasma levels were calculated in relation to the calibration curve. Additionally, calibration curves were used to calculate the compound plasma levels in the probe sets.

hNHE1 [3] = molecular target: T2, hNHE1; experiment: NHE1 plasma assay (pH recovery, BCECF/FLIPR) with plasma of treated rats; format: cell-based
Experimental: The animals used for the plasma studied were pretreated as follows: • Animals: Male Sprague Dawley rats (Moellegard) • Body weight: 320-360 g • Anesthesia: Thiopental-Na (Trapanal 100 mg/kg i.p.) • Respiration: 40 Vol % O2 • Blood gases: 32-40 mmHg pCO2 • 80-100 mmHg PO2 • pH 7.35-7.49 • SaO2>96% • Ischemia: 20 min occlusion of LAD (left anterior descending coronary artery) • Reperfusion: 60 min • Body temperature: 36.5° C. • Measurement parameters: myocardial infarct mass mean arterial blood pressure heart rate • compound plasma levels • Blood samples: single probe, 85 min after i.v. injection (end of reperfusion) • or • single probe 200 min after oral treatment (end of reperfusion)
Different amounts of plasma were prepared from groups I to VII 85 mins after injection (groups I-IV, VII) or 200 mins after treatment (groups V-VI) and from untreated rats. Plasma was stored at −20° C. until the analysis was performed.
For the cell-based determination of NHE1 ligand efficiency, LAP1 (mouse LTK-cell line) cells stably expressing hNHE1 (see Example 1) were seeded at a density of 25.000 cells/well/100 μl medium (Iscove-medium, 10% FCS, 2 mM L-glutamine, 100 μ/ml penicilline/streptomycine, 50 μg/ml gentamicine, 400 μg/ml G418) on black, clear bottom 96-well microplates (Costar®, Corning Inc., Corning, N.Y.). Cells were incubated overnight at 37° C., 5% CO2 and 90% humidity. The medium was discarded prior to measurement and 100 μl/well dye buffer (20 mM HEPES, pH 7.4 adjusted with KOH, 20 mM NH4Cl, 115 mM choline chloride, 1 mM MgCl2, 1 mM CaCl2, 5 mM KCl, 5 mM glucose, 5 μM BCECF) were added. After incubation for 20 min at 37° C. the cells were washed 3-times with Na^+-free washing buffer (5 mM HEPES, pH 7.4 adjusted with KOH, 133.8 mM choline chloride, 4.7 mM KCl, 1.25 mM CaCl2, 1.25 mM MgCl2, 0.97 mM K2HPO4, 0.23 mM KH2PO4, 5 mM glucose), leaving 90 μl of washing buffer per well. The plasma probes were prepared as followed: 10% (v/v) Na^+-buffer (10 mM HEPES, pH 7.4 adjusted with KOH, 133.8 mM NaCl, 4.7 mM KCl, 1.25 mM MgCl2, 1.25 mM CaCl2, 0.97 mM Na2HPO4, 0.23 mM NaH2PO4, 5 mM glucose) were added to 90% (v/v) rat plasma.
High controls (plasma solution without antagonist) and low controls (plasma solution with 20 μM cariporide, 10 μM final concentration) were prepared. […]
The pH-recovery was measured with a FLIPR (Fluorometric Imaging Plate Reader, Molecular Devices, Sunnyvale, Calif.; laser power 0.3 W, aperture 4, measuring interval 2 s, time of measurement 120 s). […]
For calculation of NHE1 activity, the increase in fluorescence between the 12th and 32nd s was calculated. […] Activity (%) of the samples was calculated by a comparison of the controls. Compound plasma levels were calculated in relation to the calibration curve.

[4] = rat plasma, 1 mg/kg i.v., 85 min after injection

T1 sequence (P19634 whole entry): as above

block of NHE1 activity (human NHE1 (hNHE1); 10 μM cariporide (final) added to plasma): complete block | Fluorescence increase measured between the 12th and 32nd s, Average (human NHE1 (hNHE1); low control: rabbit plasma with 10 μM cariporide, high control 14416): 631 | block of NHE1 by plasma probes (human NHE1 (hNHE1); plasma from rabbits on 0.3% cariporide chow): complete block | concentration at 1 week [1]: ≥ 10 µM | pEC50 (hNHE1 [2]; calibration curve, dilution series in 90% rat plasma/10% Na+-buffer, LAP1 cells expressing hNHE1, read-out: calculated efficiency in rat plasma (EC50)): 6.94 | Fit parameter A of the calibration curve (hNHE1 [2]; rat plasma calibration curve): −7.947 | Fit parameter B of the calibration curve (hNHE1 [2]; rat plasma calibration curve): 86.547 | Fit parameter D of the calibration curve (hNHE1 [2]; rat plasma calibration curve): −1.239 | pEC50 (hNHE1 [2]; rat plasma calibration curve, C corresponds to the EC50 (0.662 = 662 nM for compound X), read-out: Fit parameter C of the calibration curve): 6.72 | rel. FI increase mean (hNHE1 [3]; low control: rat plasma solution with 10 μM final cariporide): 3110 | Activity [%] mean (hNHE1 [3]; low control: rat plasma with 10 μM final cariporide, set as 0% NHE1 activity): 0% | Activity [%] mean (hNHE1 [3]; [4]): 49.95% | rel. FI increase mean (hNHE1 [3]; [4]): 7392
SMILES: CC(C)c1ccc(C(=O)NC(=N)N)cc1S(C)(=O)=O [cariporide]
NHE1 Activity [%] (human NHE1 (hNHE1); plasma from individual rabbits on 0.3% cariporide chow, sample after 1 week, relative to high/low controls): −0.63% and −5.45% (2×) and −1.53% and −0.39% and −2.25%

Source: US8546102B2, “Methods for determining sodium-proton-exchanger ligand efficiency” (Sanofi, priority 2008, dated 2013)
